{
  "source": "patent US20250304952A1",
  "about": "“DNA ELEMENT RESPONSIVE TO EXTRACHROMOSOMAL DNA IN CANCER CELLS” (The Board of Trustees of the Leland Stanford Junior …, priority 2021, published 2025)",
  "key": {"[1]": {"system": "ecDNA hubs in COLO320-DM", "test": "ecDNA clustering by interphase DNA FISH, autocorrelation g(r)", "assay_type": "cell-based, human", "settings": "500 nM, 6 hours", "excerpt": "The Oligopaint FISH probe libraries were constructed as described previously 51 Each oligo consists of a 40 nucleotide (nt) homology to the hg19 genome assemble designed from the algorithm developed from the laboratory of Dr. Ting Wu (https://oligopaints.hms.harvard.edu/). Each library subpool consists of a unique sets of primer pairs for orthogonal PCR amplification and a 20 nt T7 promoter sequence for in vitro transcription and a 20 nt region for reverse transcription. Individual Oligopaint probes were generated by PCR amplification, in vitro transcription, and reverse transcription, in which ssDNA oligos conjugated with ATTO488 and ATTO647 fluorophores were introduced during the reverse transcription step. The Oligopaint covered genomic regions (hg19) used in this study are as follows: chr8: 116967673-118566852 (hg19_COLO_nonecDNA_1.5Mbp), chr8: 127435083-129017969 (hg19_COLO_ecDNA_1.5Mbp), chr8: 128729248-128831223 (hg19_PC3_ecDNA1_100 kb). A ssDNA oligo pool was ordered and synthesized from Twist Bioscience (San Francisco, CA). 15 mm #1.5 round glass coverslips (Electron Microscopy Sciences) were pre-rinsed with anhydrous ethanol for 5 min, air dried, and coated with L-poly lysine solution (100 μg/mL) for at least 2 hours. Fully dissociated ColoDM320 or PC3 cells were seeded onto the coverslips and recovered for at least 6 hours before experiments. Cells were fixed with 4% (v/v) methanol free paraformaldehyde diluted in 1×PBS at room temperature for 10 min. Then cells were washed 2× with 1×PBS and permeabilized in 0.5% Triton-X100 in 1×PBS for 30 min. After 2× wash in 1×PBS, cells were treated with 0.1M HCl for 5 min, followed by 3× washes with 2×SSC and 30 min incubation in 2×SSC+0.1% Tween20 (2×SSCT)+50% (v/v) formamide (EMD Millipore, cat #S4117). […]\nTo analyze the clustering of ecDNAs, we applied the autocorrelation function as described previously58 in Matlab (2019). g(r) estimates the probability of detecting another ecDNA signal at increasing distances from the viewpoint of an index ecDNA signal and is equal to 1 for a uniform, random distribution. Specifically, the pair auto-correlation function g(r^→) was calculated by the fast Fourier transform (FFT) method described by the equations below.\nN(r^→) is the auto-correlation of a mask matrix that has the value of 1 inside the nucleus used for normalization. […] Autocorrelation functions were calculated first by converting the Cartesian coordinates to polar coordinates by Matlab cart2pol( ) function, binning by radius and by averaging within the assigned bins. […]"}, "[2]": {"system": "MYC transcription from ecDNA in COLO320-DM", "test": "MYC transcription probability by joint nascent RNA and DNA FISH", "assay_type": "cell-based, human", "settings": "500 nM JQ1, 6 hours, RNA normalized to ecDNA copy number", "excerpt": "To quantify the MYC gene expression on the ecDNAs, we ordered the RNA FISH probes conjugated with a Quasar 570 dye (Biosearch Technologies) targeting to the intronic region of human (hg19) MYC gene for detection of nascent RNA transcript. We also ordered the RNA FISH probes conjugated with a Quasar 670 dye targeting to the exonic region of human MYC gene for detection of both mature and nascent RNA transcripts. […]\nTo characterize the ecDNA hub shape and size, we employed the synthetic model—Surfaces object from Imaris (version 9.1, Bitplane) and applied a Gaussian filter (σ=1 voxel in xy) and background subtraction for optimal segmentation and quantification of ecDNA hubs. ecDNA hubs containing connected voxels were sorted by size and singleton ecDNAs were separated from ecDNA hubs (minimal two ecDNA molecules).\nTo measure the number of ecDNA or nascent transcripts, we localized the voxels corresponding to the local maximum of identified DNA or RNA FISH signal using the Imaris spots function module. We validated the accuracy of interphase ecDNA counting by comparing to quantification of ecDNA number by metaphase FISH as well as copy number estimated by whole genome sequencing FIG. 5f). […]"}},
  "data": [
    {"smiles": "Cc1sc2c(c1C)C(c1ccc(Cl)cc1)=N[C@@H](CC(=O)OC(C)(C)C)c1nnc(C)n1-2", "note": "[JQ1]", "values": [
      {"measurement": "ecDNA hub clustering (interphase DNA FISH, autocorrelation g(r))", "setting": "[1]", "value": "dispersed ecDNA hubs"},
      {"measurement": "reduction of MYC transcription probability per ecDNA copy", "setting": "[2]", "value": "four-fold"}
    ]}
  ]
}
